Source: patent US9029377B2, “Platelet-activating factor receptor antagonists” (Merck Sharp & Dohme Corp., priority 2009, dated 2015)

Target: PAFR (Homo sapiens, UniProt P25105)
Assay: PAF Binding Assay (PAFR binding)

Sequence of PAFR (P25105 whole entry): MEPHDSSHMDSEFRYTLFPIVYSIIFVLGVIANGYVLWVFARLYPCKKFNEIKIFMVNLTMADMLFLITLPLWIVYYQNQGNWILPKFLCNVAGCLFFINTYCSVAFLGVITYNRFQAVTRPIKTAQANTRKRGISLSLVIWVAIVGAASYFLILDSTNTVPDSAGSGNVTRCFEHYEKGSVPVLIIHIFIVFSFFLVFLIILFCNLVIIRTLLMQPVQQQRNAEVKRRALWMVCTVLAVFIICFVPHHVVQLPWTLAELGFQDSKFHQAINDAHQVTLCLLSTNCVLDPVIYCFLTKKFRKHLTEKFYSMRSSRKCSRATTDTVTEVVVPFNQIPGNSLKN

Cc1nncn1[C@@H]1CCC[C@H](NS(=O)(=O)c2ccc(-c3noc(C4CC4)n3)cc2)C1 [Compound 2Nl, 4-(5-cyclopropyl-1,2,4-oxadiazol-3-yl)-N-[(1S,3R)-3-(3-methyl-4H-1,2,4-triazol-4-yl)cyclohexyl]benzenesulfonamide]
IC50: 9.6 nM

CCc1cc(-c2ccc(OC(C)C)cc2)ccc1S(=O)(=O)N[C@H]1CCC[C@@H](n2cnnc2)C1 [Compound 2Aaj, 3-ethyl-4′-isopropoxy-N-[(1S,3R)-3-(4H-1,2,4-triazol-4-yl)cyclohexyl]biphenyl-4-sulfonamide]
IC50: 0.8 nM

CCc1cc(-c2ccc(NC(C)=O)cc2)ccc1S(=O)(=O)N[C@H]1CCC[C@@H](n2cnnc2)C1 [Compound 2Aao, N′-[3′-ethyl-4′-({[(1S,3R)-3-(4H-1,2,4-triazol-4-yl)cyclohexyl]amino}sulfonyl)biphenyl-4-yl]acetamide]
IC50: 57 nM

CCc1cc(-c2ccc(OCC(F)(F)F)nc2)ccc1S(=O)(=O)N[C@H]1CCC[C@@H](n2cnnc2C)C1 [Compound 2Abe, 2-ethyl-N-[(1S,3R)-3-(3-methyl-4H-1,2,4-triazol-4-yl)cyclohexyl]-4-[6-(2,2,2-trifluoroethoxy)pyridin-3-yl]benzenesulfonamide]
IC50: 0.2 nM

O=S(=O)(N[C@H]1CCC[C@@H](n2cnnc2)C1)c1cc(-c2cccc3ccc(OCC(F)(F)F)nc23)cc(C(F)(F)F)c1 [Compound 3Aad, N-[(1S,3R)-3-(4H-1,2,4-triazol-4-yl)cyclohexyl]-3-[2-(2,2,2-trifluoroethoxy)quinolin-8-yl]-5-(trifluoromethyl)benzenesulfonamide]
IC50: 4 nM

CCc1cc(-c2cccnc2OCC(F)(F)F)cc(S(=O)(=O)N[C@H]2CCC[C@@H](n3cnnc3)C2)c1 [Compound 3Bam, 3-ethyl-N-[(1S,3R)-3-(4H-1,2,4-triazol-4-yl)cyclohexyl]-5-[2-(2,2,2-trifluoroethoxy)pyridin-3-yl]benzenesulfonamide]
IC50: 9.5 nM

CCc1cc(-c2c(OC)cccc2OC(F)(F)F)ccc1S(=O)(=O)N[C@H]1CCC[C@@H](n2cnnc2)C1 [Compound 2Aab, 3-ethyl-2′-methoxy-N-[(1S,3R)-3-(4H-1,2,4-triazol-4-yl)cyclohexyl]-6′-(trifluoromethoxy)biphenyl-4-sulfonamide]
IC50: 54 nM

O=S(=O)(N[C@@H]1C[C@H](n2cnnc2)CC(F)(F)C1)c1ccc(-c2ccc(OC(F)(F)F)cc2)c(F)c1 [Compound 2Ga, N-[(1R,5S)-3,3-difluoro-5-(4H-1,2,4-triazol-4-yl)cyclohexyl]-2-fluoro-4′-(trifluoromethoxy)biphenyl-4-sulfonamide]
IC50: 10 nM

CC(C)Oc1ccc(-c2ccc(S(=O)(=O)N[C@H]3CCC[C@@H](n4cnnc4)C3)cc2F)cn1 [Compound 2Ee, 3-fluoro-4-(6-isopropoxypyridin-3-yl)-N-[(1S,3R)-3-(4H-1,2,4-triazol-4-yl)cyclohexyl]benzenesulfonamide]
IC50: 5.1 nM

O=S(=O)(N[C@H]1CCC[C@@H](n2cnnc2)C1)c1cc(-c2cc(Cl)cn3ccnc23)cc(C(F)(F)F)c1 [Compound 3Aat, 3-(6-chloroimidazo[1,2-a]pyridin-8-yl)-N-[(1S,3R)-3-(4H-1,2,4-triazol-4-yl)cyclohexyl]-5-(trifluoromethyl)benzenesulfonamide]
IC50: 2.7 nM

COc1ccc(S(=O)(=O)N[C@H]2CCC[C@@H](n3cnnc3)C2)c(OC)c1 [Compound 2My, 2,4-dimethoxy-N-[(1S,3R)-3-(4H-1,2,4-triazol-4-yl)cyclohexyl]benzenesulfonamide]
IC50: 210 nM

Cc1nncn1[C@@H]1CCC[C@H](NS(=O)(=O)c2ccc(-c3ccc(OC(F)F)cc3)c(F)c2)C1 [Compound 2Fc, 4′-(difluoromethoxy)-2-fluoro-N-[(1S,3R)-3-(3-methyl-4H-1,2,4-triazol-4-yl)cyclohexyl]biphenyl-4-sulfonamide]
IC50: 1.9 nM

CCc1cc(-c2c(C)noc2C)ccc1S(=O)(=O)N[C@H]1CCC[C@@H](n2cnnc2)C1 [Compound 2Az, 4-(3,5-dimethylisoxazol-4-yl)-2-ethyl-N-[(1S,3R)-3-(4H-1,2,4-triazol-4-yl)cyclohexyl]benzenesulfonamide]
IC50: 48 nM

O=S(=O)(N[C@H]1CCC[C@@H](n2cnnc2)C1)c1cc(-c2cccc3nccn23)cc(C(F)(F)F)c1 [Compound 3Aaa, 3-imidazo[1,2-a]-pyridin-5-yl-N-[(1S,3R)-3-(4H-1,2,4-triazol-4-yl)cyclohexyl]-5-(trifluoromethyl)benzenesulfonamide]
IC50: 13 nM

2-ethyl-N-[(1S,3R)-3-(4H-1,2,4-triazol-4-yl)cyclohexyl]biphenyl-4-sulfonamide [Compound 2Af]
IC50: 15 nM

O=S(=O)(N[C@H]1CCC[C@@H](n2cnnc2)C1)c1ccc(OC(F)(F)F)cc1 [Compound 2Mu, N-[(1S,3R)-3-(4H-1,2,4-triazol-4-yl)cyclohexyl]-4-(trifluoromethoxy)benzenesulfonamide]
IC50: 164 nM

Cc1cn2nc(-c3cc(C(F)(F)F)cc(S(=O)(=O)N[C@H]4CCC[C@@H](n5cnnc5)C4)c3)ccc2n1 [Compound 3Aai, 3-(2-methylimidazo[1,2-b]pyridazin-6-yl)-N-[(1S,3R)-3-(4H-1,2,4-triazol-4-yl)cyclohexyl]-5-(trifluoromethyl)benzenesulfonamide]
IC50: 4.1 nM

O=S(=O)(N[C@H]1CCC[C@@H](n2cnnc2)C1)c1cc(-c2ccn3nccc3n2)cc(C(F)(F)F)c1 [Compound 3Aak, 3-pyrazolo[1,5-a]pyrimidin-5-yl-N-[(1S,3R)-3-(4H-1,2,4-triazol-4-yl)cyclohexyl]-5-(trifluoromethyl)benzenesulfonamide]
IC50: 3.6 nM

CCc1cc(-c2cccn3ccnc23)ccc1S(=O)(=O)N[C@H]1CCC[C@@H](n2cnnc2)C1 [Compound 2d, 2-ethyl-4-imidazo[1,2-a]pyridin-8-yl-N-[(1S,3R)-3-(4H-1,2,4-triazol-4-yl)cyclohexyl]benzenesulfonamide]
IC50: 3.9 nM

Cc1nncn1[C@H]1C[C@@H](NS(=O)(=O)c2ccc(OCCCCF)c(F)c2)CC(F)(F)C1 [Compound 2Hi, N-[(1R,5S)-3,3-difluoro-5-(3-methyl-4H-1,2,4-triazol-4-yl)cyclohexyl]-3-fluoro-4-(4-fluorobutoxy)benzenesulfonamide]
IC50: 6.8 nM

4′-(difluoromethoxy)-N-[(1R,5S)-3,3-difluoro-5-(4H-1,2,4-triazol-4-yl)cyclohexyl]-2-ethylbenzenesulfonamide [Compound 2Caf]
IC50: 12 nM

O=S(=O)(N[C@H]1CCC[C@@H](n2cnnc2)C1)c1cccc(OC(F)F)c1 [Compound 2Md, 3-(difluoromethoxy)-N-[(1S,3R)-3-(4H-1,2,4-triazol-4-yl)cyclohexyl]benzenesulfonamide]
IC50: 323 nM

O=S(=O)(N[C@H]1CCC[C@@H](n2cnnc2)C1)c1ccc(OCCCC(F)(F)F)cc1 [Compound 2Mac, N-[(1S,3R)-3-(4H-1,2,4-triazol-4-yl)cyclohexyl]-4-(4,4,4-trifluorobutoxy)benzenesulfonamide]
IC50: 8.3 nM

Cc1nncn1[C@@H]1CCC[C@H](NS(=O)(=O)c2ccc(OCCCC(F)(F)F)cc2)C1 [Compound 2Nac, N-[(1S,3R)-3-(3-methyl-4H-1,2,4-triazol-4-yl)cyclohexyl]-4-(4,4,4-trifluorobutoxy)benzenesulfonamide]
IC50: 4.7 nM

CCc1cc(-c2ccc(OC(F)(F)F)cc2)ccc1S(=O)(=O)N[C@H]1CCC[C@@H](n2cnnc2C)C1 [Compound 2Abd, 3-ethyl-N-[(1S,3R)-3-(3-methyl-4H-1,2,4-triazol-4-yl)cyclohexyl]-4′-(trifluoromethoxy)biphenyl-4-sulfonamide]
IC50: 2.2 nM

CC(C)(C)c1cccc(S(=O)(=O)N[C@H]2CCC[C@@H](n3cnnc3)C2)c1 [Compound 2Mf, 3-tert-butyl-N-[(1S,3R)-3-(4H-1,2,4-triazol-4-yl)cyclohexyl]benzenesulfonamide]
IC50: 157 nM

CCc1cc(-n2cccn2)ccc1S(=O)(=O)N[C@H]1CCC[C@@H](n2cnnc2)C1 [Compound 6a, 2-ethyl-4-(1H-pyrazol-1-yl)-N-[(1S,3R)-3-(4H-1,2,4-triazol-4-yl)cyclohexyl]benzenesulfonamide]
IC50: 68 nM

3-(2-cyclopropylpyrazolo[1,5-a]pyrimidin-7-yl)-N-[(1R,5S)-3,3-difluoro-5-(3-methyl-4H-1,2,4-triazol-4-yl)cyclohexyl]-5-(trifluoromethyl)benzenesulfonamide [Compound 9Af]
IC50: 5.1 nM

3-(2-aminopyrimidin-4-yl)-N-[(1R,5S)-3,3-difluoro-5-(3-methyl-4H-1,2,4-triazol-4-yl)cyclohexyl]-5-(trifluoromethyl)benzenesulfonamide [Compound 9Ab]
IC50: 15 nM

CCc1cc(-c2ccc(OC(F)(F)F)cc2)ccc1S(=O)(=O)N[C@@H]1C[C@H](n2cnnc2C)CC(F)(F)C1 [Compound 2Cbd, N-[(1R,5S)-3,3-difluoro-5-(3-methyl-4H-1,2,4-triazol-4-yl)cyclohexyl]-3-ethyl-4′-(trifluoromethoxy)biphenyl-4-sulfonamide]
IC50: 0.9 nM

CCc1cc(-c2cncc(OC)c2)ccc1S(=O)(=O)N[C@H]1CCC[C@@H](n2cnnc2)C1 [Compound 2Aan, 2-ethyl-4-(5-methoxypyridin-3-yl)-N-[(1S,3R)-3-(4H-1,2,4-triazol-4-yl)cyclohexyl]benzenesulfonamide]
IC50: 71 nM

CC(C)Oc1ccc(S(=O)(=O)N[C@H]2CCC[C@@H](n3cnnc3)C2)cc1 [Compound 2Mz, 4-isopropoxy-N-[(1S,3R)-3-(4H-1,2,4-triazol-4-yl)cyclohexyl]benzenesulfonamide]
IC50: 25 nM

CCCCOc1ccc(S(=O)(=O)N[C@H]2CCC[C@@H](n3cnnc3C3CC3)C2)c(F)c1 [Compound 2Oag, 4-butoxy-N-[(1S,3R)-3-(3-cyclopropyl-4H-1,2,4-triazol-4-yl)cyclohexyl]-2-fluorobenzenesulfonamide]
IC50: 7.2 nM

Cc1nnc(C)n1[C@@H]1CCC[C@H](NS(=O)(=O)c2c(C(C)C)cc(C(C)C)cc2C(C)C)C1 [Compound 7d, N-[(1S,3R)-3-(3,5-dimethyl-4H-1,2,4-triazol-4-yl)cyclohexyl]-2,4,6-triisopropylbenzenesulfonamide]
IC50: 9.8 nM
